Targets include CYP3A4 (Homo sapiens, UniProt P08684); human CYP2C19 (Homo sapiens, UniProt P33261); human CYP2C9 (Homo sapiens, UniProt P11712); human CYP2D6 (Homo sapiens, UniProt P10635).
What all share (assay): biochemical
For assay [1], the target named is Photinus pyralis (firefly) luciferase (Photinus pyralis, UniProt P08659). The format is biochemical.
For a further assay, the target named is T1, human CYP1A2 (Homo sapiens, UniProt P05177).
T1 sequence (P05177 1-516): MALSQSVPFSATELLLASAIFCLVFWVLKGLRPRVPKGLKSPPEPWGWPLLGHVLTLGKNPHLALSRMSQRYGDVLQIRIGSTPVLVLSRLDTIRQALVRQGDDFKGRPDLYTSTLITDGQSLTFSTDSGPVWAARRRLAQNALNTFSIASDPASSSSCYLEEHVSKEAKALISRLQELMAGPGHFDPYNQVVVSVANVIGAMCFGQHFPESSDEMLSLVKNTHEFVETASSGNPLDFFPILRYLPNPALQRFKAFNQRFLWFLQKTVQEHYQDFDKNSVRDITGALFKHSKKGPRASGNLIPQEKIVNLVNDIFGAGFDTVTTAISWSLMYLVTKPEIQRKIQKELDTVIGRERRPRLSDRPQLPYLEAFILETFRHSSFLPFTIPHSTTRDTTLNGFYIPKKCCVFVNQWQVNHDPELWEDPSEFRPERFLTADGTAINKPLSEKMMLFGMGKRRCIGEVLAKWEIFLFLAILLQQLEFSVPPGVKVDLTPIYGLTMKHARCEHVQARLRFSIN

The mark [2] stands for this setting: CYP3A4 IC50 (half-maximal inhibitory concentration).
[3] abbreviates: CYP2C19 IC50 (half-maximal inhibitory concentration).
Where [4] appears, read: CYP2C9 IC50 (half-maximal inhibitory concentration).
[5] abbreviates: CYP1A2 IC50 (half-maximal inhibitory concentration).
The mark [6] stands for this setting: CYP2D6 IC50 (half-maximal inhibitory concentration).

Like-named read-outs stand apart in the source and are kept apart here.

Chain of CYP3A4 (P08684 whole entry): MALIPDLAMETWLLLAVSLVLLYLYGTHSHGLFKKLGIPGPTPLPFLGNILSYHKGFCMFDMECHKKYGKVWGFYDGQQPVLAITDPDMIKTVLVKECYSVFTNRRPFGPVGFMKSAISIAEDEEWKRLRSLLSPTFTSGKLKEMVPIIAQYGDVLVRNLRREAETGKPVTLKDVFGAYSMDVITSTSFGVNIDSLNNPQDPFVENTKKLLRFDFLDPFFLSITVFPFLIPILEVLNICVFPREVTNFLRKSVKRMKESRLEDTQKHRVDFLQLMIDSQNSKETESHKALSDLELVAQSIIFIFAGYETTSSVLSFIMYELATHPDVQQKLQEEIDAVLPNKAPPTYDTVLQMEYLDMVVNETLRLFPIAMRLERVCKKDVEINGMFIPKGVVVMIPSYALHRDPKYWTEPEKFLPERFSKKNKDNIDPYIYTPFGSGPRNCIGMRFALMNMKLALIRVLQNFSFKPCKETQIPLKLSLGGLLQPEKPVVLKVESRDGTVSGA
Chain of human CYP2C9 (P11712 whole entry): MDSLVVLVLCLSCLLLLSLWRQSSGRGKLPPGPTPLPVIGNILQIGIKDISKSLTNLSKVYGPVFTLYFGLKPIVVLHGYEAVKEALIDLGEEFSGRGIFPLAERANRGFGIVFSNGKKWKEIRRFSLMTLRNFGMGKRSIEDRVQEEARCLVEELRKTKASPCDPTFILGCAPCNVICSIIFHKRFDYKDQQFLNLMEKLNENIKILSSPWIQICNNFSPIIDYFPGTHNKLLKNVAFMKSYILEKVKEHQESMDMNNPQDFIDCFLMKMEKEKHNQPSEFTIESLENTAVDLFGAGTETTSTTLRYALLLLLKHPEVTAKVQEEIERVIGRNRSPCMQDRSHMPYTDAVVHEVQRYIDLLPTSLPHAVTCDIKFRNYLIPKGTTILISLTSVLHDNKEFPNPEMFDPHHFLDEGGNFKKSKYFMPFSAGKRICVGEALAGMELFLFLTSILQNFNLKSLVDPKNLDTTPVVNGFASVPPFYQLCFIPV
Chain of human CYP2D6 (P10635 whole entry): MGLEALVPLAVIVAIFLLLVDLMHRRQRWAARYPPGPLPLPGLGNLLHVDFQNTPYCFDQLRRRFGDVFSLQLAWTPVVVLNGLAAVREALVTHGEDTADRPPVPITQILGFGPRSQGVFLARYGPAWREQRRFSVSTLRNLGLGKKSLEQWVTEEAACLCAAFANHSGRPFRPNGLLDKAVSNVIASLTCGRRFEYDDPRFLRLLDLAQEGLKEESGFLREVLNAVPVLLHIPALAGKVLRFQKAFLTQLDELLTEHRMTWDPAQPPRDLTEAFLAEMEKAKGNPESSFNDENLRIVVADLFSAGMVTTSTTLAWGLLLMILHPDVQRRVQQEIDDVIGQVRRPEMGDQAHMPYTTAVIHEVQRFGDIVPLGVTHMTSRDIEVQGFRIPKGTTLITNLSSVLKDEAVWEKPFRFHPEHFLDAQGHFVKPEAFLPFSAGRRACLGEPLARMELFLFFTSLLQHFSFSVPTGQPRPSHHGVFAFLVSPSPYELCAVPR
Chain of human CYP2C19 (P33261 whole entry): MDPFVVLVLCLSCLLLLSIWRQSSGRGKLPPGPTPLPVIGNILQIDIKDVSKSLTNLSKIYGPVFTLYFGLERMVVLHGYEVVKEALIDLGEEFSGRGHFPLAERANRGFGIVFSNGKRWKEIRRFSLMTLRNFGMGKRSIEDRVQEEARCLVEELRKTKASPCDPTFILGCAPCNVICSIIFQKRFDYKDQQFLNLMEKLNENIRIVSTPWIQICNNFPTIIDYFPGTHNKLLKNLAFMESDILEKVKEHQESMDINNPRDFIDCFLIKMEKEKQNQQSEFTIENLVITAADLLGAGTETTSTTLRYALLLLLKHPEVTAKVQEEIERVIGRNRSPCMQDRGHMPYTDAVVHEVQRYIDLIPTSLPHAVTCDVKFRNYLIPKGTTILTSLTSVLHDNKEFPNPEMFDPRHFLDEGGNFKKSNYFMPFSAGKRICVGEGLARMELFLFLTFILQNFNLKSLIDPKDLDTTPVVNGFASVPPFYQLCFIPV
Chain of Photinus pyralis (firefly) luciferase (P08659 whole entry): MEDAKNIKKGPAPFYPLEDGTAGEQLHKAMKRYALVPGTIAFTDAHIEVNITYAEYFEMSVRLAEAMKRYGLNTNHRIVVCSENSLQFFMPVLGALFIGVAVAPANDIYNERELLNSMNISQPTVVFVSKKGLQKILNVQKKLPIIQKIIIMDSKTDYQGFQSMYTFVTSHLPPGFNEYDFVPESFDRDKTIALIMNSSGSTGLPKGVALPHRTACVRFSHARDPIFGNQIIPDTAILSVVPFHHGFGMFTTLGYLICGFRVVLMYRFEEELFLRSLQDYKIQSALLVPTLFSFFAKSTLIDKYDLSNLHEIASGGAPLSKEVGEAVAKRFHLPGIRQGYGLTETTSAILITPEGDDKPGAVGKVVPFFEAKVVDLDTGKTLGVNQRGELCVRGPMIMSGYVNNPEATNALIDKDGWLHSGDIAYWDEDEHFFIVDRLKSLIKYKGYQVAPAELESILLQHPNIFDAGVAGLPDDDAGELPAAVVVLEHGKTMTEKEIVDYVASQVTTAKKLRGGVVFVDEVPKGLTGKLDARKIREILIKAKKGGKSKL

Turning to `CCOP(=S)(OCC)SCSP(=S)(OCC)OCC` [Ethion], in assay [1], the “Luciferase IC50” value is “Inactive”. For the same compound, the IC50 against CYP3A4 (CYP3A4 IC50) was 0.97 µM; at human CYP2C19 (CYP2C19 IC50), 0.34 µM; at human CYP2C9, 0.52 µM; against human CYP1A2 (CYP1A2 IC50), 19.6 µM; at human CYP2D6 it was 37 µM.

For `CCOc1cc(C(C)(C)C)ccc1C1COC(c2c(F)cccc2F)=N1` (stereo not drawn) [Etoxazole], the “Luciferase IC50 (half-maximal inhibitory concentration)” value in assay [1] is “Inactive”. Also, the IC50 against CYP3A4 (setting [2]) was found to be 0.11 µM; against human CYP2C19 (setting [3]), 3.43 µM; on human CYP2C9 (setting [4]) it was 9.94 µM; against human CYP1A2 (setting [5]) it was 19.6 µM; against human CYP2D6 (setting [6]), 10.5 µM.

Turning to `OC(c1ccc(Cl)cc1)(c1cncnc1)c1ccccc1Cl` (stereo not drawn) [Fenarimol], the “Luciferase IC50 (half-maximal inhibitory concentration)” value in assay [1] is recorded as “Inactive”. Moreover, the IC50 at CYP3A4 (setting [2]) was 0.17 µM; against human CYP2C19 (setting [3]), 0.24 µM; at human CYP2C9 (setting [4]) it was 6.1 µM; against human CYP1A2 (setting [5]), 71.4 µM; at human CYP2D6 (setting [6]), 35.6 µM.

As to `N#CC(CCc1ccc(Cl)cc1)(Cn1cncn1)c1ccccc1` (stereo not drawn) [Fenbuconazole], in assay [1], the “Luciferase IC50 (half-maximal inhibitory concentration)” value was “Inactive”. Further, the IC50 against CYP3A4 (setting [2]) came to 0.05 µM; at human CYP2C19 (setting [3]), 0.17 µM; at human CYP2C9 (setting [4]) it was 1.94 µM; against human CYP1A2 (setting [5]), 35.8 µM; on human CYP2D6 (setting [6]), 38.6 µM.

With `COP(=S)(OC)Oc1ccc([N+](=O)[O-])c(C)c1` [Fenitrothion], the IC50 in assay [1] came to 67 µM; against CYP3A4 (setting [2]), 8.48 µM; on human CYP2C19 (setting [3]), 0.55 µM; against human CYP2C9 (setting [4]), 6.12 µM; against human CYP1A2 (setting [5]), 1.04 µM; against human CYP2D6 (setting [6]) it was 35 µM.

Take `O=[N+]([O-])c1cc(C(F)(F)F)c(Cl)c([N+](=O)[O-])c1Nc1ncc(C(F)(F)F)cc1Cl` [Fluazinam]: the IC50 in assay [1] came out at 89.4 µM; against CYP3A4 (setting [2]) it was 18.7 µM; against human CYP2C19 (setting [3]), 14.8 µM; on human CYP2C9 (setting [4]), 0.73 µM; at human CYP1A2 (setting [5]), 35.6 µM; on human CYP2D6 (setting [6]) it was 46.2 µM.

Regarding `C[Si](Cn1cncn1)(c1ccc(F)cc1)c1ccc(F)cc1` [Flusilazole], the “Luciferase IC50 (half-maximal inhibitory concentration)” value in assay [1] is “Inactive”. The IC50 was 0.16 µM at CYP3A4 (setting [2]); 0.06 µM at human CYP2C19 (setting [3]); 2.28 µM on human CYP2C9 (setting [4]); 27.9 µM at human CYP1A2 (setting [5]); 33 µM against human CYP2D6 (setting [6]).

Regarding `OC(Cn1cncn1)(c1ccc(F)cc1)c1ccccc1F` (stereo not drawn) [Flutriafol], the “Luciferase IC50 (half-maximal inhibitory concentration)” value in assay [1] is given as “Inactive”. For the same compound, the IC50 against CYP3A4 (setting [2]) was found to be 0.24 µM; against human CYP2C19 (setting [3]), 1.63 µM; against human CYP2C9 (setting [4]) it was 0.77 µM; at human CYP1A2 (setting [5]), 35.7 µM; at human CYP2D6 (setting [6]) it was 37 µM.

As to `CCCCC(O)(Cn1cncn1)c1ccc(Cl)cc1Cl` (stereo not drawn) [Hexaconazole], in assay [1], the “Luciferase IC50 (half-maximal inhibitory concentration)” value was “Inactive”. For the same compound, the IC50 is 0.11 µM against CYP3A4 (setting [2]); 0.3 µM against human CYP2C19 (setting [3]); 0.52 µM at human CYP2C9 (setting [4]); 37 µM on human CYP1A2 (setting [5]); 33 µM against human CYP2D6 (setting [6]).

Take `COP(N)(=S)Oc1ccccc1C(=O)OC(C)C` (stereo not drawn) [Isocarbophos]: the “Luciferase IC50 (half-maximal inhibitory concentration)” value in assay [1] is “Inactive”. Besides, the IC50 amounted to 1.61 µM at CYP3A4 (setting [2]); 0.13 µM against human CYP2C19 (setting [3]); 5.11 µM against human CYP2C9 (setting [4]); 1.14 µM at human CYP1A2 (setting [5]); 46.1 µM against human CYP2D6 (setting [6]).

Take `CCOP(=S)(NC(C)C)Oc1ccccc1C(=O)OC(C)C` (stereo not drawn) [Isofenphos]: the “Luciferase IC50 (half-maximal inhibitory concentration)” value in assay [1] is given as “Inactive”. For the same compound, the IC50 at CYP3A4 (setting [2]) stood at 0.68 µM; at human CYP2C19 (setting [3]), 0.19 µM; on human CYP2C9 it was 1.44 µM; against human CYP1A2 (setting [5]), 9.71 µM; against human CYP2D6, 60.6 µM.

Take `CCOP(=S)(OCC)Oc1cc(-c2ccccc2)on1` [Isoxathion]: the IC50 in assay [1] stood at 33 µM; at CYP3A4 (CYP3A4 IC50), 2.11 µM; at human CYP2C19 (CYP2C19 IC50), 2.55 µM; on human CYP2C9 it was 0.75 µM; on human CYP1A2 (CYP1A2 IC50), 3.92 µM; at human CYP2D6, 35.6 µM.

The values are drawn from article PMC12155096 (International Journal of Molecular Sciences, 2025).
